Reference: patent US11214594B2, “Antimicrobial peptide having synergistic antibacterial effect with antibiotics on multidrug resistant bacteria, and use thereof” (priority 2016, dated 2022)
≈ marks a conversion by molar mass, not a printed value. Where a SMILES comes first, the peptide text is derived from it. [ ]: non-standard residue; d: D form.

Experiments:
A. baumannii [1] = assay: microbe, parasite or virus in culture; format: cell-based, Acinetobacter baumannii; details: for Antibacterial activity relative to PapMA-1: A. baumannii and S. typhimurium
Method in brief: (§1)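 Broth microdilution in MH medium: strains diluted to 2×10^6 CFU were mixed with equal volumes of twofold serial peptide dilutions in MH medium. MIC was taken as the lowest peptide concentration preventing bacterial growth.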

MDRAB 12035 = assay: microbe, parasite or virus in culture; format: cell-based, Acinetobacter baumannii
Method in brief: as §1

S. typhimurium = assay: microbe, parasite or virus in culture; format: cell-based, Salmonella typhimurium
Method in brief: as §1

S. aureus = assay: microbe, parasite or virus in culture; format: cell-based, Staphylococcus aureus
Method in brief: as §1

MDREC 1229 = assay: MIC of antibiotic during combined treatment with antimicrobial peptide; format: cell-based, Escherichia coli
Method in brief: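 Broth microdilution in MH medium; strains were diluted to 2×10^6 CFU per ml before plating. Peptide was serially diluted stepwise at 2:1 starting from its MIC, and MH-diluted antibiotic was then added to determine MIC. The reversed arrangement was also tested.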

A. baumannii [2] = assay: as above; format: cell-based, Acinetobacter baumannii; details: for Antibiotic MIC, Erythromycin / Antibiotic MIC, Linezolid / Antibiotic MIC, Vancomycin: A. baumannii
Method in brief: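 Using MH broth, we determined combination MICs by titrating the antibiotic into wells and then repeating under the reverse dilution scheme.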

[3] = tested on: multi-drug resistant bacteria; assay: MIC, summary statements for multi-drug resistant bacteria; format: cell-based
Method in brief: as §1

[4] = peptide treatment concentration 1 μg/ml
[5] = peptide treatment concentration 2 μg/ml
[6] = peptide treatment concentration 4 μg/ml
[7] = peptide treatment concentration 6 μg/ml
[8] = peptide treatment concentration 8 μg/ml
[9] = peptide treatment concentration 16 μg/ml
[10] = peptide treatment concentration 32 μg/ml
[11] = peptide treatment concentration 64 μg/ml
[12] = combined with peptide at 1 μg/ml
[13] = combined with peptide at 2 μg/ml
[14] = combined with peptide at 4 μg/ml
[15] = combined with peptide at 6 μg/ml
[16] = combined with peptide at 8 μg/ml
[17] = combined with peptide at 16 μg/ml
[18] = combined with peptide at 32 μg/ml
[19] = combined with peptide at 64 μg/ml

SMILES: CC[C@H](C)[C@H](NC(=O)[C@H](CCCCN)NC(=O)[C@H](Cc1c[nH]c2ccccc12)NC(=O)[C@@H](N)CCCNC(=N)N)C(=O)N[C@@H](Cc1ccccc1)C(=O)N[C@@H](CCCCN)C(=O)N[C@@H](CCCCN)C(=O)N[C@H](C(=O)N[C@H](CC(C)C)C(=O)N[C@@H](CCCCN)C(=O)N[C@@H](CC(C)C)C(=O)N[C@@H](CC(C)C)C(=O)N[C@@H](Cc1c[nH]cn1)C(=O)N[C@@H](CCCCN)C(=O)N[C@@H](C)C(=O)N[C@@H](CCCCN)C(=O)N[C@@H](CCCCN)C(=O)N[C@@H](Cc1c[nH]c2ccccc12)C(N)=O)[C@@H](C)CC [PapMA-22, RWK IFK KIl KLL HKA KKW-NH2] (H-RWKIFKKI[dL]KLLHKAKKW-NH2; N-terminus assumed)
- Minimal inhibitory concentration MIC (A. baumannii [1]): 16 µg/mL (≈ 6.77 µM)
- Peptide MIC, peptide alone (A. baumannii [1]): 16 µg/mL
- Antibacterial activity relative to PapMA-1 (A. baumannii [1]): at least twice as high
- Minimal inhibitory concentration MIC (MDRAB 12035): 32 µg/mL (≈ 13.5 µM)
- Peptide MIC, peptide alone (MDRAB 12035): 32 µg/mL
- Minimal inhibitory concentration MIC (S. typhimurium): 32 µg/mL (≈ 13.5 µM)
- Minimal inhibitory concentration MIC (S. aureus): >128 µg/mL
- Antibiotic MIC, Erythromycin (MDREC 1229; [4]): 128 µg/mL
- Antibiotic MIC, Linezolid (MDREC 1229; [4]): >128 µg/mL
- Antibiotic MIC, Vancomycin (MDREC 1229; [4]): >128 µg/mL
- Antibiotic MIC, Erythromycin (MDREC 1229; [5]): 32 µg/mL
- Antibiotic MIC, Linezolid (MDREC 1229; [5]): >128 µg/mL
- Antibiotic MIC, Vancomycin (MDREC 1229; [5]): >128 µg/mL
- Antibiotic MIC, Erythromycin (MDREC 1229; [6]): 32 µg/mL
- Antibiotic MIC, Linezolid (MDREC 1229; [6]): 128 µg/mL
- Antibiotic MIC, Vancomycin (MDREC 1229; [6]): >128 µg/mL
- Antibiotic MIC, Erythromycin (MDREC 1229; [7]): 16 µg/mL
- Antibiotic MIC, Linezolid (MDREC 1229; [7]): 64 µg/mL
- Antibiotic MIC, Vancomycin (MDREC 1229; [7]): >128 µg/mL
- Antibiotic MIC, Erythromycin (MDREC 1229; [8]): 4 µg/mL
- Antibiotic MIC, Linezolid (MDREC 1229; [8]): 32 µg/mL
- Antibiotic MIC, Vancomycin (MDREC 1229; [8]): 64 µg/mL
- Antibiotic MIC, Erythromycin (MDREC 1229; [9]): 2 µg/mL
- Antibiotic MIC, Linezolid (MDREC 1229; [9]): 16 µg/mL
- Antibiotic MIC, Vancomycin (MDREC 1229; [9]): 32 µg/mL
- Antibiotic MIC, Erythromycin (MDREC 1229; [10]): 0 µg/mL
- Antibiotic MIC, Linezolid (MDREC 1229; [10]): 0 µg/mL
- Antibiotic MIC, Vancomycin (MDREC 1229; [10]): 0 µg/mL
- Antibiotic MIC, Erythromycin (MDREC 1229; [11]): 0 µg/mL
- Antibiotic MIC, Linezolid (MDREC 1229; [11]): 0 µg/mL
- Antibiotic MIC, Vancomycin (MDREC 1229; [11]): 0 µg/mL
- Synergistic effect of antibacterial activity with existing antibiotics compared with PapMA-1 (A. baumannii [2]; A. baumannii and MDRAB 12035): level similar to that of PapMA-1 peptide
- Antibiotic MIC, Erythromycin (A. baumannii [2]; [12]): 32 µg/mL
- Antibiotic MIC, Linezolid (A. baumannii [2]; [12]): >128 µg/mL
- Antibiotic MIC, Vancomycin (A. baumannii [2]; [12]): >128 µg/mL
- Antibiotic MIC, Erythromycin (A. baumannii [2]; [13]): 32 µg/mL
- Antibiotic MIC, Linezolid (A. baumannii [2]; [13]): >128 µg/mL
- Antibiotic MIC, Vancomycin (A. baumannii [2]; [13]): 128 µg/mL
- Antibiotic MIC, Erythromycin (A. baumannii [2]; [14]): 8 µg/mL
- Antibiotic MIC, Linezolid (A. baumannii [2]; [14]): 32 µg/mL
- Antibiotic MIC, Vancomycin (A. baumannii [2]; [14]): 64 µg/mL
- Antibiotic MIC, Erythromycin (A. baumannii [2]; [15]): 2 µg/mL
- Antibiotic MIC, Linezolid (A. baumannii [2]; [15]): 16 µg/mL
- Antibiotic MIC, Vancomycin (A. baumannii [2]; [15]): 32 µg/mL
- Antibiotic MIC, Erythromycin (A. baumannii [2]; [16]): 1 µg/mL
- Antibiotic MIC, Linezolid (A. baumannii [2]; [16]): 8 µg/mL
- Antibiotic MIC, Vancomycin (A. baumannii [2]; [16]): 8 µg/mL
- Antibiotic MIC, Erythromycin (A. baumannii [2]; [17]): 0 µg/mL
- Antibiotic MIC, Linezolid (A. baumannii [2]; [17]): 0 µg/mL
- Antibiotic MIC, Vancomycin (A. baumannii [2]; [17]): 0 µg/mL
- Antibiotic MIC, Erythromycin (A. baumannii [2]; [18]): 0 µg/mL
- Antibiotic MIC, Linezolid (A. baumannii [2]; [18]): 0 µg/mL
- Antibiotic MIC, Vancomycin (A. baumannii [2]; [18]): 0 µg/mL
- Antibiotic MIC, Erythromycin (A. baumannii [2]; [19]): 0 µg/mL
- Antibiotic MIC, Linezolid (A. baumannii [2]; [19]): 0 µg/mL
- Antibiotic MIC, Vancomycin (A. baumannii [2]; [19]): 0 µg/mL
- Antibacterial activity relative to PapMA-1 [3]: twice to four times higher

SMILES: CC[C@H](C)[C@H](NC(=O)[C@H](CCCCN)NC(=O)[C@H](Cc1c[nH]c2ccccc12)NC(=O)[C@@H](N)CCCNC(=N)N)C(=O)N[C@@H](Cc1ccccc1)C(=O)N[C@@H](CCCCN)C(=O)N[C@@H](CCCCN)C(=O)N[C@H](C(=O)N[C@H](CCCCN)C(=O)N[C@@H](CCCCN)C(=O)N[C@@H](CC(C)C)C(=O)N[C@@H](CC(C)C)C(=O)N[C@@H](Cc1c[nH]cn1)C(=O)N[C@@H](CO)C(=O)N[C@@H](Cc1ccccc1)C(=O)N[C@@H](CCCCN)C(=O)N[C@@H](CCCCN)C(=O)N[C@@H](Cc1ccccc1)C(N)=O)[C@@H](C)CC [PapMA-15, RWK IFK KIk KLL HSF KKF-NH2] (H-RWKIFKKI[dK]KLLHSFKKF-NH2; N-terminus assumed)
- Minimal inhibitory concentration MIC (A. baumannii [1]): 32 µg/mL (≈ 13.5 µM)
- Peptide MIC, peptide alone (A. baumannii [1]): 32 µg/mL
- Antibacterial activity relative to PapMA-1 (A. baumannii [1]): at least twice as high
- Minimal inhibitory concentration MIC (MDRAB 12035): 32 µg/mL (≈ 13.5 µM)
- Peptide MIC, peptide alone (MDRAB 12035): 32 µg/mL
- Minimal inhibitory concentration MIC (S. typhimurium): 32 µg/mL (≈ 13.5 µM)
- Minimal inhibitory concentration MIC (S. aureus): >128 µg/mL
- Antibiotic MIC, Erythromycin (MDREC 1229; [4]): >128 µg/mL
- Antibiotic MIC, Linezolid (MDREC 1229; [4]): >128 µg/mL
- Antibiotic MIC, Vancomycin (MDREC 1229; [4]): >128 µg/mL
- Antibiotic MIC, Erythromycin (MDREC 1229; [5]): 32 µg/mL
- Antibiotic MIC, Linezolid (MDREC 1229; [5]): 128 µg/mL
- Antibiotic MIC, Vancomycin (MDREC 1229; [5]): >128 µg/mL
- Antibiotic MIC, Erythromycin (MDREC 1229; [6]): 16 µg/mL
- Antibiotic MIC, Linezolid (MDREC 1229; [6]): 64 µg/mL
- Antibiotic MIC, Vancomycin (MDREC 1229; [6]): >128 µg/mL
- Antibiotic MIC, Erythromycin (MDREC 1229; [7]): 8 µg/mL
- Antibiotic MIC, Linezolid (MDREC 1229; [7]): 64 µg/mL
- Antibiotic MIC, Vancomycin (MDREC 1229; [7]): 64 µg/mL
- Antibiotic MIC, Erythromycin (MDREC 1229; [8]): 4 µg/mL
- Antibiotic MIC, Linezolid (MDREC 1229; [8]): 32 µg/mL
- Antibiotic MIC, Vancomycin (MDREC 1229; [8]): 32 µg/mL
- Antibiotic MIC, Erythromycin (MDREC 1229; [9]): 1 µg/mL
- Antibiotic MIC, Linezolid (MDREC 1229; [9]): 16 µg/mL
- Antibiotic MIC, Vancomycin (MDREC 1229; [9]): 16 µg/mL
- Antibiotic MIC, Erythromycin (MDREC 1229; [10]): 0 µg/mL
- Antibiotic MIC, Linezolid (MDREC 1229; [10]): 0 µg/mL
- Antibiotic MIC, Vancomycin (MDREC 1229; [10]): 0 µg/mL
- Antibiotic MIC, Erythromycin (MDREC 1229; [11]): 0 µg/mL
- Antibiotic MIC, Linezolid (MDREC 1229; [11]): 0 µg/mL
- Antibiotic MIC, Vancomycin (MDREC 1229; [11]): 0 µg/mL
- Antibiotic MIC, Erythromycin (A. baumannii [2]; [12]): 32 µg/mL
- Antibiotic MIC, Linezolid (A. baumannii [2]; [12]): >128 µg/mL
- Antibiotic MIC, Vancomycin (A. baumannii [2]; [12]): >128 µg/mL
- Antibiotic MIC, Erythromycin (A. baumannii [2]; [13]): 32 µg/mL
- Antibiotic MIC, Linezolid (A. baumannii [2]; [13]): 128 µg/mL
- Antibiotic MIC, Vancomycin (A. baumannii [2]; [13]): 128 µg/mL
- Antibiotic MIC, Erythromycin (A. baumannii [2]; [14]): 16 µg/mL
- Antibiotic MIC, Linezolid (A. baumannii [2]; [14]): 64 µg/mL
- Antibiotic MIC, Vancomycin (A. baumannii [2]; [14]): 32 µg/mL
- Antibiotic MIC, Erythromycin (A. baumannii [2]; [15]): 2 µg/mL
- Antibiotic MIC, Linezolid (A. baumannii [2]; [15]): 32 µg/mL
- Antibiotic MIC, Vancomycin (A. baumannii [2]; [15]): 16 µg/mL
- Antibiotic MIC, Erythromycin (A. baumannii [2]; [16]): 0.5 µg/mL
- Antibiotic MIC, Linezolid (A. baumannii [2]; [16]): 16 µg/mL
- Antibiotic MIC, Vancomycin (A. baumannii [2]; [16]): 16 µg/mL
- Antibiotic MIC, Erythromycin (A. baumannii [2]; [17]): 0.25 µg/mL
- Antibiotic MIC, Linezolid (A. baumannii [2]; [17]): 2 µg/mL
- Antibiotic MIC, Vancomycin (A. baumannii [2]; [17]): 8 µg/mL
- Antibiotic MIC, Erythromycin (A. baumannii [2]; [18]): 0 µg/mL
- Antibiotic MIC, Linezolid (A. baumannii [2]; [18]): 0 µg/mL
- Antibiotic MIC, Vancomycin (A. baumannii [2]; [18]): 0 µg/mL
- Antibiotic MIC, Erythromycin (A. baumannii [2]; [19]): 0 µg/mL
- Antibiotic MIC, Linezolid (A. baumannii [2]; [19]): 0 µg/mL
- Antibiotic MIC, Vancomycin (A. baumannii [2]; [19]): 0 µg/mL
- Antibacterial activity relative to PapMA-1 [3]: twice to four times higher
